For experiment [1], the target named is T1, rhesus (Macacca Mulatta) H3 receptor (Macaca mulatta, UniProt Q865E1).
T1 construct: pcDNA5/FRT/TO (Invitrogen) containing the rhesus monkey (Macacca Mulatta) 445 amino acid H3 receptor
The experiment in a line: Rhesus H3 radioligand binding assay ([3H]-methylhistamine displacement, WGA SPA beads). The note with it: [3H]-methylhistamine 2 nM; membranes of Flp-In T-REx 293 cells expressing rhesus H3; Cheng-Prusoff. On the set-up: species or system rhesus monkey (Macacca Mulatta). As for the experimental part: (§1) Rhesus H3 membranes were prepared from the Flp-In T-REx 293 Cell Line (Invitrogen) stably transfected with pcDNA5/FRT/TO (Invitrogen) containing the rhesus monkey (Macacca Mulatta) 445 amino acid H3 receptor. (Genbank #AY231164). Stably transfected cultures were amplified in tissue culture flasks by standard tissue culture methods and induced to express rhesus H3 by exposure to 500 ng/ml tetracycline (Cellgro) for 24 hours. After induction, cells were dissociated from flasks utilizing Cell Stripper (Cellgro). Cells were centrifuged (1K×g, 5 min) and pellet frozen in an ethanol-dry ice bath to disrupt cell membranes. Frozen cell pellet was re-suspended in 5 mM HEPES (pH 7.4, Invitrogen) at 10 ml/1000 cm2 of harvested cells. The cell suspension was drawn through an 18 gauge needle (2-3×) followed by a 23 gauge needle (2-3×) to further disrupt cell membranes. The cell suspension was centrifuged (40K×g, 30 min). Cell membrane pellet was re-suspended in 5 mM HEPES (pH 7.4, Invitrogen) at a final protein concentration of 10 mg/ml. Rhesus H3 membranes were stored under liquid nitrogen prior to use in [3H]-Methylhistamine and GTP S radioligand binding assays.
Rhesus H3 radioligand binding assay was performed using rhesus H3 receptor membranes (prepared as described above), [3H]-Methylhistamine (Perkin Elmer) and WGA SPA beads (wheat germ agglutinin scintillation proximity assay) beads (Amersham). The assay was performed in 96-well Opti-Plates (Packard). Each reaction contained 50 μl rhesus H3 membranes (20-30 μg total protein), 50 μl WGA SPA beads (0.1 μg) and 50 μl of 83 Ci/mmol [^3H]-Methylhistamine (final concentration 2 nM) and 50 μl of tested compound. The compounds of this invention and/or vehicle were diluted with binding buffer from 10 mM DMSO stocks. Assay plates were sealed with TopSeal (Perkin Elmer) and mixed on shaker (25° C., 1 hour). Assay plates were read on TopCount scintillation counter (Packard). Results were analyzed by Hill transformation and Ki values were determined by Cheng-Prusoff equation.

The subject of experiment [2] is rhesus H3 receptor. The experiment is described as follows: GTPγS radioligand binding assay: inhibition of rhesus H3 constitutive functional activity in cell membranes (inverse agonism). The format is biochemical, rhesus monkey (Macacca Mulatta). On the set-up: concentration or dose not given beside the values. Conditions: negative value = below basal level. As for the experimental part:
as §1

pKi: −log10 of the molar value.

The source of these data is patent publication US8383814B2, “Substituted tetrahydropyran spiro pyrrolidinone and piperidinone, preparation and therapeutic use thereof” (Sanofi, priority 2008, dated 2013).

T1 sequence (Q865E1 1-445): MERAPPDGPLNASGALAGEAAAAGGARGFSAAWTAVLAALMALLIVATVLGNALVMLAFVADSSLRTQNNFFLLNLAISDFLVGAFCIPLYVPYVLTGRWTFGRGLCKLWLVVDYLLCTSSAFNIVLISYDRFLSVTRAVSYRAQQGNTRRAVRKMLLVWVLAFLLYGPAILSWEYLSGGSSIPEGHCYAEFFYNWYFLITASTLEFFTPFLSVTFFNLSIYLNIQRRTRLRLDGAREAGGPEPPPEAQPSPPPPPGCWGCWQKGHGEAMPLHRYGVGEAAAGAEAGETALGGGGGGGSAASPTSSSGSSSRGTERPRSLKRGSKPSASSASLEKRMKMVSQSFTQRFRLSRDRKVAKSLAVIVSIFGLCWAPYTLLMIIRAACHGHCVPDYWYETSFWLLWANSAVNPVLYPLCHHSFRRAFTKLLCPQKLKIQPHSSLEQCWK

As for `Cc1cc(N2CC[C@H](N3CCC[C@@H]3C)C2)ccc1N1CCC2(CCOCC2)C1=O` [Example 1, 2-[2-Methyl-4-((2S,3′S)-2-methyl-[1,3′]bipyrrolidinyl-1′-yl)-phenyl]-8-oxa-2-aza-spiro[4.5]decan-1-one], in experiment [1], the pKi (in general, −log10 of the Ki, conventionally taken in molar units) was 9.03. In experiment [2], the “Inverse Agonism: % inhibition of Basal GTPγS binding in Rhesus H3” value (from here on “Inverse Agonism: % inhibition”) was −25%.

On to `Cc1cc(N2CC[C@H](N3CCC[C@@H]3C)C2)ccc1N1CCCC2(CCOCC2)C1=O` [Example 2, 2-[2-Methyl-4-((2S,3′S)-2-methyl-[1,3′]bipyrrolidinyl-1′-yl)-phenyl]-9-oxa-2-aza-spiro[5.5]undecan-1-one], for which the pKi in experiment [1] is 9.42. The “Inverse Agonism: % inhibition” value in experiment [2] is recorded as −9%. Consider `C[C@H]1CCCN1[C@H]1CCN(c2ccc(N3CCC4(CCOCC4)C3=O)cc2)C1` [Example 3, 2-[4-((2S,3′S)-2-Methyl-[1,3′]bipyrrolidinyl-1′-yl)-phenyl]-8-oxa-2-aza-spiro[4.5]decan-1-one], for which the pKi in experiment [1] is 9.20. Also, the “Inverse Agonism: % inhibition” value in experiment [2] is given as −26%. `C[C@H]1CCCN1[C@H]1CCN(c2ccc(N3CCC4(CCOCC4)C3=O)cc2F)C1` [Example 4, 2-[3-Fluoro-4-((2S,3′S)-2-methyl-[1,3′]bipyrrolidinyl-1′-yl)-phenyl]-8-oxa-2-aza-spiro[4.5]decan-1-one]: the pKi in experiment [1] was 8.68. The “Inverse Agonism: % inhibition” value in experiment [2] is given as −31%. On to `Cc1cc(N2CCC(N3CCC[C@@H]3C)CC2)ccc1N1CCC2(CCOCC2)C1=O` [Example 5, 2-{2-Methyl-4-[4-((2S,3′S)-2-methyl-pyrrolidin-1-yl)-piperidin-1-yl]-phenyl}-8-oxa-2-aza-spiro[4.5]decan-1-one], for which the pKi in experiment [1] was 9.15. The “Inverse Agonism: % inhibition” value in experiment [2] is on record as −11%. The matching figures for `Cc1cc(N2CC[C@H](N3CCC[C@H]3C)C2)ccc1N1CCC2(CCOCC2)C1=O` [Example 6]: 7.42 and −36%.

In experiment [1], `CCC1CCCN1C1CCN(c2ccc(N3CCC4(CCOCC4)C3=O)c(F)c2)C1` (centres unmarked) [Example 7, 2-[4-(2-Ethyl-[1,3′]bipyrrolidinyl-1′-yl)-2-fluoro-phenyl]-8-oxa-2-aza-spiro[4.5]decan-1-one] showed a pKi of 8.28. The “Inverse Agonism: % inhibition” value in experiment [2] is −35%. Turning to `CC(C)C1CCCN1C1CCN(c2ccc(N3CCC4(CCOCC4)C3=O)c(F)c2)C1` (centres unmarked) [Example 8, 2-[2-Fluoro-4-(2-isopropyl-[1,3′]bipyrrolidinyl-1′-yl)-phenyl]-8-oxa-2-aza-spiro[4.5]decan-1-one], in experiment [1], the pKi is 7.12. In addition, the “Inverse Agonism: % inhibition” value in experiment [2] is −22%.

Regarding `CCCC1CCCN1C1CCN(c2ccc(N3CCC4(CCOCC4)C3=O)c(F)c2)C1` (centres unmarked) [Example 9, 2-[2-Fluoro-4-(2-propyl-[1,3′]bipyrrolidinyl-1′-yl)-phenyl]-8-oxa-2-aza-spiro[4.5]decan-1-one], the pKi in experiment [1] was 6.77. Moreover, the “Inverse Agonism: % inhibition” value in experiment [2] was −30%.

In turn, `C[C@H]1CCCN1C1CCN(c2ccc(N3CCC4(CCOCC4)C3=O)c(F)c2)CC1` [Example 10, 2-{2-Fluoro-4-[4-((2S,3′S)-2-methyl-pyrrolidin-1-yl)piperidin-1-yl]-phenyl}-8-oxa-2-aza-spiro[4.5]decan-1-one] showed a pKi in experiment [1] of 9.80. The “Inverse Agonism: % inhibition” value in experiment [2] was −33%. In the same order, the values of `C[C@H]1CCCN1[C@H]1CCN(c2ccc(N3CCC4(CCOCC4)C3=O)c(F)c2)C1` [Example 11, 2-[2-Fluoro-4-((2S,3′S)-2-methyl-[1,3′]bipyrrolidinyl-1′-yl)-phenyl]-8-oxa-2-aza-spiro[4.5]decan-1-one] are 9.35 and −11%. In the same order, the values of `C[C@H]1CCCCN1C1CCN(c2ccc(N3CCC4(CCOCC4)C3=O)c(F)c2)CC1` [Example 12, 2-[2-Fluoro-4-((2S,3′S)-2-methyl-[1,4]bipiperidinyl-1′-yl)-phenyl]-8-oxa-2-aza-spiro[4.5]decan-1-one] are 9.35 and −22%. The matching figures for `CC(C)C1CCCN1C1CCN(c2ccc(N3CCC4(CCOCC4)C3=O)cc2)CC1` (centres unmarked) [Example 13, 2-{4-[4-(2-Isopropyl-pyrrolidin-1-yl)-piperidin-1-yl]-phenyl}-8-oxa-2-aza-spiro[4.5]decan-1-one]: 7.80 and −22%. Compound `CCCC1CCCN1C1CCN(c2ccc(N3CCC4(CCOCC4)C3=O)cc2)CC1` (centres unmarked) [Example 14, 2-{4-[4-(2-Propyl-pyrrolidin-1-yl)-piperidin-1-yl]-phenyl}-8-oxa-2-aza-spiro[4.5]decan-1-one] showed a pKi in experiment [1] of 7.89. For the same compound, in experiment [2], the “Inverse Agonism: % inhibition” value was −33%.

In turn, `COCC1CCCN1C1CCN(c2ccc(N3CCC4(CCOCC4)C3=O)cc2)C1` (centres unmarked) [Example 15, 2-[4-(2-Methoxymethyl-[1,3′]bipyrrolidinyl-1′-yl)-phenyl]-8-oxa-2-aza-spiro[4.5]decan-1-one] gave a pKi in experiment [1] of 6.72. For the same compound, the “Inverse Agonism: % inhibition” value in experiment [2] is given as −26%. In the same order, the values of `C[C@H]1CCCN1C1CCN(c2ccc(N3CCC4(CCOCC4)C3=O)cc2)CC1` [Example 16, 2-{4-[4-((2S,3′S)-2-Methyl-pyrrolidin-1-yl)-piperidin-1-yl]-phenyl}-8-oxa-2-aza-spiro[4.5]decan-1-one] are 9.28 and −29%. In the same order, the values of `C[C@H]1CCCN1[C@H]1CCN(c2ccc(N3CCCC4(CCOCC4)C3=O)cc2F)C1` [Example 17, 2-[3-Fluoro-4-(2-methyl-[1,3′]bipyrrolidinyl-1′-yl)-phenyl]-9-oxa-2-aza-spiro[5.5]undecan-1-one] are 8.60 and −16%. Take `CCC1CCCN1C1CCN(c2ccc(N3CCC4(CCOCC4)C3=O)c(C(F)(F)F)c2)CC1` (centres unmarked) [Example 18, 2-{4-[4-(2-Ethyl-pyrrolidin-1-yl)-piperidin-1-yl]-2-trifluoromethyl-phenyl}-8-oxa-2-aza-spiro[4.5]decan-1-one]: in experiment [1], the pKi was 8.37. Further, the “Inverse Agonism: % inhibition” value in experiment [2] is −35%. Compound `CC(C)C1CCCN1C1CCN(c2ccc(N3CCC4(CCOCC4)C3=O)c(C(F)(F)F)c2)CC1` (centres unmarked) [Example 19, 2-{4-[4-(2-Isopropyl-pyrrolidin-1-yl)-piperidin-1-yl]-2-trifluoromethyl-phenyl}-8-oxa-2-aza-spiro[4.5]decan-1-one] gave a pKi in experiment [1] of 7.00. For the same compound, the “Inverse Agonism: % inhibition” value in experiment [2] is −8%.

For the compound `CCCC1CCCN1C1CCN(c2ccc(N3CCC4(CCOCC4)C3=O)c(C(F)(F)F)c2)C1` (centres unmarked) [Example 20, 2-[4-(2-Propyl-[1,3′]bipyrrolidinyl-1′-yl)-2-trifluoromethyl-phenyl]-8-oxa-2-aza-spiro[4.5]decan-1-one], in experiment [1], the pKi was 6.19. The “Inverse Agonism: % inhibition” value in experiment [2] is recorded as −12%. As for `CCc1cc(N2CCC(N3CCC[C@@H]3C)C2)ccc1N1CCC2(CCOCC2)C1=O` (some centres unmarked) [Example 26], the pKi in experiment [1] is 9.89.
